Data: patent US20070128217A1 (priority 2003, published 2007)

Tests used:
[1] = tested on: antibodies in sera from SARS patients (sera 1a, 1b, 2, 6, 37, 62, London, SARS-yellow, SARS-green); assay type: binding, human; parameters: Binding of serum 6 to linear peptides of protein X1 of SARS-CoV Urbani / Binding of serum 37 to linear peptides of protein X1 of SARS-CoV Urbani / Binding of serum 6 to looped/cyclic peptide (PEPSCAN-ELISA) / Binding of serum 37 to looped/cyclic peptide (PEPSCAN-ELISA) / Binding of serum 37 to looped/cyclic peptides of protein X1 of SARS-CoV Urbani / Binding of serum 6 to linear peptides of protein X2 / Binding of serum 37 to linear peptides of protein X2 / Binding of serum 37 to looped/cyclic peptides of protein X2 of SARS-CoV Urbani / Binding of serum 6 to linear peptides of protein M of SARS-CoV Urbani / Binding of serum 37 to linear peptides of protein M of SARS-CoV Urbani / Binding of serum 6 to looped/cyclic peptides of protein M of SARS-CoV Urbani / Binding of serum 37 to looped/cyclic peptides of protein M of SARS-CoV Urbani / Binding of serum 6 to linear peptides of protein X3 of SARS-CoV Urbani / Binding of serum 37 to linear peptides of protein X3 of SARS-CoV Urbani / Binding of serum 37 to looped/cyclic peptides of protein X3 of SARS-CoV Urbani / Binding of serum 6 to linear peptides of protein X4 of SARS-CoV Urbani / Binding of serum 37 to linear peptides of protein X4 of SARS-CoV Urbani / Binding of serum 37 to looped/cyclic peptides of protein X4 of SARS-CoV Urbani / Binding of serum 6 to linear peptides of protein X5 of SARS-CoV Urbani / Binding of serum 37 to linear peptides of protein X5 of SARS-CoV Urbani / Binding of serum 37 to looped/cyclic peptides of protein X5 of SARS-CoV Urbani / Binding of serum 6 to linear peptides of protein N of SARS-CoV Urbani / Binding of serum 37 to linear peptides of protein N of SARS-CoV Urbani / Binding of serum 6 to linear peptide (PEPSCAN-ELISA) / Binding of serum 1a to looped/cyclic peptides of protein N of SARS-CoV Urbani / Binding of serum 1b to looped/cyclic peptides of protein N of SARS-CoV Urbani / Binding of serum 2 to looped/cyclic peptides of protein N of SARS-CoV Urbani / Binding of serum 6 to looped/cyclic peptides of protein N of SARS-CoV Urbani / Binding of serum 37 to looped/cyclic peptides of protein N of SARS-CoV Urbani / Binding of serum 62 to looped/cyclic peptides of protein N of SARS-CoV Urbani / Binding of serum London to looped/cyclic peptides of protein N of SARS-CoV Urbani / Binding of serum SARS-green to looped/cyclic peptides of protein N of SARS-CoV Urbani: unit not given here
[2] = tested on: control sera (pooled serum of ten healthy LUMC hospital workers; commercial negative donor pooled serum from the Dutch bloodbank); assay type: binding, human; parameters: Binding of Control serum LUMC to linear peptides / Binding of Control serum Blood-bank to linear peptides / Binding of Control serum LUMC to looped peptides / Binding of Control Serum Blood-Bank to Looped peptides / Binding of Control serum LUMC to linear peptides of the protein M of SARS-CoV Urbani / Binding of Control serum Blood-bank to linear peptides of the protein M of SARS-CoV Urbani / Binding of Control serum LUMC to looped peptides of the protein M of SARS-CoV Urbani / Binding of Control Serum Blood-Bank to Looped peptides of the protein M of SARS-CoV Urbani: unit not given here
[3] = tested on: rabbit serum obtained by immunizing a rabbit with the SARS-CoV strain Frankfurt 1; assay type: binding; parameters: Binding of a rabbit serum to linear peptides / Binding of a rabbit serum to looped peptides / Rabbit serum linear peptides / Rabbit serum looped peptides / Binding of a rabbit serum to linear peptides of protein N of SARS-CoV Urbani (Rabbit serum linear peptides) / Binding of a rabbit serum to looped/cyclic peptides of protein N of SARS-CoV Urbani (Rabbit serum looped peptides): unit not given here
[4] = tested on: recombinant human anti-SARS-CoV antibody 03-018; assay type: binding; parameters: Binding of antibody 03-018 to linear peptides of the N protein of SARS-CoV Urbani / Binding of antibody 03-018 to looped/cyclic peptides of the N protein of SARS-CoV Urbani: unit not given here

Row | Sequence | Binding of serum 1a to linear peptides of protein N of SARS-CoV Urbani [1] | Binding of serum 1a to looped/cyclic peptides of protein N of SARS-CoV Urbani [1] | Binding of serum 1b to linear peptides of protein N of SARS-CoV Urbani [1] | Binding of serum 1b to looped/cyclic peptides of protein N of SARS-CoV Urbani [1] | Binding of serum 2 to linear peptides of protein N of SARS-CoV Urbani [1] | Binding of serum 2 to looped/cyclic peptides of protein N of SARS-CoV Urbani [1] | Binding of serum 6 to linear peptides of protein N of SARS-CoV Urbani [1] | Binding of serum 6 to looped/cyclic peptides of protein N of SARS-CoV Urbani [1] | Binding of serum 37 to linear peptides of protein N of SARS-CoV Urbani [1] | Binding of serum 37 to looped/cyclic peptides of protein N of SARS-CoV Urbani [1] | Binding of serum 62 to linear peptides of protein N of SARS-CoV Urbani [1] | Binding of serum 62 to looped/cyclic peptides of protein N of SARS-CoV Urbani [1] | Binding of serum London to linear peptides of protein N of SARS-CoV Urbani [1] | Binding of serum London to looped/cyclic peptides of protein N of SARS-CoV Urbani [1] | Binding of serum SARS-green to linear peptides of protein N of SARS-CoV Urbani [1] | Binding of serum SARS-green to looped/cyclic peptides of protein N of SARS-CoV Urbani [1] | Binding of serum SARS-yellow to linear peptides of protein N of SARS-CoV Urbani [1] | Binding of serum SARS-yellow to looped/cyclic peptides of protein N of SARS-CoV Urbani [1] | Binding of a rabbit serum to linear peptides of protein N of SARS-CoV Urbani (Rabbit serum linear peptides) [3] | Binding of a rabbit serum to looped/cyclic peptides of protein N of SARS-CoV Urbani (Rabbit serum looped peptides) [3] | further results
1 | FTALTQHGKEELRFP | 0.3 | 0.2 | 0.2 | 0.1 | 0.3 | 0.3 | 0.2 | 0.1 | 0.8 | 0.4 | 0.7 | 0.3 | 0.5 | 0.2 | 0.7 | 0.0 | 0.6 | 0.1 | 0.2 | 0.1 | Binding of Control Serum Blood-Bank to Looped peptides [2]: 0.5; Binding of Control serum Blood-bank to linear peptides [2]: 0.7; Binding of Control serum LUMC to linear peptides [2]: 0.7; Binding of Control serum LUMC to looped peptides [2]: 0.3; Binding of antibody 03-018 to linear peptides of the N protein of SARS-CoV Urbani [4]: 0.1; Binding of antibody 03-018 to looped/cyclic peptides of the N protein of SARS-CoV Urbani [4]: 0.2
2 | FYYLGTGPEASLPYG | 0.3 | 0.4 | 0.1 | 0.3 | 0.2 | 0.4 | 0.2 | 0.2 | 0.6 | 0.7 | 0.7 | 0.6 | 0.5 | 0.5 | 0.4 | 0.4 | 0.7 | 0.7 | 0.1 | 0.6 | Binding of Control Serum Blood-Bank to Looped peptides [2]: 0.7; Binding of Control serum Blood-bank to linear peptides [2]: 0.6; Binding of Control serum LUMC to linear peptides [2]: 0.7; Binding of Control serum LUMC to looped peptides [2]: 0.7; Binding of antibody 03-018 to linear peptides of the N protein of SARS-CoV Urbani [4]: 0.1; Binding of antibody 03-018 to looped/cyclic peptides of the N protein of SARS-CoV Urbani [4]: 0.2
3 | GAIKLDDKDPQFKDN | 0.2 | 0.3 | 0.1 | 0.2 | 0.2 | 0.4 | 0.2 | 0.2 | 0.7 | 0.5 | 0.9 | 0.5 | 0.6 | 0.4 | 0.5 | 0.8 | 0.7 | 0.5 | 0.1 | 0.3 | Control Serum Blood-Bank Looped peptides [2]: 0.6; Control serum Blood-bank linear peptides [2]: 0.7; Control serum LUMC linear peptides [2]: 0.7; Control serum LUMC looped peptides [2]: 0.5; Binding of antibody 03-018 to linear peptides of the N protein of SARS-CoV Urbani [4]: 0.1; Binding of antibody 03-018 to looped/cyclic peptides of the N protein of SARS-CoV Urbani [4]: 0.2
4 | GANKEGIVWVATEGA | 0.2 | 0.2 | 0.1 | 0.1 | 0.2 | 0.2 | 0.1 | 0.1 | 0.7 | 0.5 | 0.6 | 0.3 | 0.4 | 0.3 | 0.2 | 0.2 | 0.6 | 0.4 | 0.2 | 0.5 | Binding of Control Serum Blood-Bank to Looped peptides [2]: 0.4; Binding of Control serum Blood-bank to linear peptides [2]: 0.5; Binding of Control serum LUMC to linear peptides [2]: 0.5; Binding of Control serum LUMC to looped peptides [2]: 0.5; Binding of antibody 03-018 to linear peptides of the N protein of SARS-CoV Urbani [4]: 0.1; Binding of antibody 03-018 to looped/cyclic peptides of the N protein of SARS-CoV Urbani [4]: 0.2
